Test results reported in US5582986A, “Antisense oligonucleotide inhibition of the ras gene” (Isis Pharmaceuticals, Inc., priority 1994, dated 1996).

Columns and labels:
[1] = test system: normal (wild-type) H-ras-luciferase reporter gene in HeLa cells; experiment: ras-luciferase reporter gene expression, normal (wild-type) form, transient transfection; format: cell-based, human; settings: dose-response, luciferase activity as % of untreated transfected cells, read-out: IC50, inhibition of ras-luciferase activity, normal form
[2] = test system: mutant (activated, codon-12) H-ras-luciferase reporter gene in HeLa cells; experiment: ras-luciferase reporter gene expression, mutant (codon-12, activated) form, transient transfection; format: cell-based, human

With “2570: phosphorothioate 17-mer CCA-CAC-CGA-CGG-CGC-CC, targeted to the codon-12 point mutation of activated H-ras RNA (antisense CCACACCGACGGCGCCC; all phosphorothioate, sugars by position and methylation of C not given here) [Oligo 2570]” the IC50 [1] was about 250 nM, the “selectivity toward the mutant form of ras-luciferase as compared to the normal form” value ([2]; at low concentrations, dose-response (FIG. 2)) was “approximately threefold” and the IC50 ([2]; dose-response, HeLa cells, luciferase activity as % of untreated transfected cells, read-out: IC50, inhibition of ras-luciferase activity, mutant form) was about 100 nM. The “inhibition of mutant ras-luciferase relative to wild-type” value ([2]; single dose 100 nM, HeLa cells, cationic lipid (FIG. 6)) was “four-fold” and the “selectivity toward the mutated form of ras-luciferase as compared to the normal form (in words)” value ([2]; single dose 0.5 μM (FIG. 3, FIG. 4)) was “displayed selectivity toward the mutated form”.
